From ChEMBL document CHEMBL5465560, “Selectivity Literature for EUbOPEN Chemogenomic Library” (2024)

Key:
[1] = molecular target: Ribosomal protein S6 kinase alpha-4 (Homo sapiens) (UniProt O75676); test: Selectivity interaction (KinomeScan (DiscoverX)) EUB0000229b RPS6KA4; details: at 10 µM
[2] = molecular target: Leucine-rich repeat serine/threonine-protein kinase 2 (Homo sapiens, UniProt Q5S007); test: (§1) Selectivity interaction (KinomeScan (DiscoverX)) EUB0001079a LRRK2; details: at 1 µM
[3] = test system: Leucine-rich repeat serine/threonine-protein kinase 2 (Homo sapiens), Q5S007 [G2019S]; test: as §1; details: at 1 µM
[4] = molecular target: Serine/threonine-protein kinase 26 (Homo sapiens, UniProt Q9P289); test: Selectivity interaction (Kinase panel (KiNativ target engagement assay in Jurkat cells)) EUB0001635a STK26; format: cell-based; details: Selectivity number of off-targets 0.0, Selectivity number of targets 233.0, Source Knowledge https://www.sciencedirect.com/science/article/pii/S2451945619300674?via%3Dihub, at 1 µM
[5] = molecular target: Dual specificity protein kinase CLK3 (Homo sapiens, UniProt P49761); details: at 10 µM
[6] = molecular target: Cyclin-dependent kinase 16 (Homo sapiens) (UniProt Q00536); test: Selectivity interaction (KinomeScan (DiscoverX)) EUB0000092b CDK16; details: at 10 µM
[7] = molecular target: Maternal embryonic leucine zipper kinase (Homo sapiens) (UniProt Q14680); test: Selectivity interaction (KinomeScan (DiscoverX)) EUB0000618a MELK; details: at 10 µM
[8] = molecular target: T1, Myotonin-protein kinase (Homo sapiens) (UniProt Q09013); details: at 10 µM
T1 sequence (whole entry): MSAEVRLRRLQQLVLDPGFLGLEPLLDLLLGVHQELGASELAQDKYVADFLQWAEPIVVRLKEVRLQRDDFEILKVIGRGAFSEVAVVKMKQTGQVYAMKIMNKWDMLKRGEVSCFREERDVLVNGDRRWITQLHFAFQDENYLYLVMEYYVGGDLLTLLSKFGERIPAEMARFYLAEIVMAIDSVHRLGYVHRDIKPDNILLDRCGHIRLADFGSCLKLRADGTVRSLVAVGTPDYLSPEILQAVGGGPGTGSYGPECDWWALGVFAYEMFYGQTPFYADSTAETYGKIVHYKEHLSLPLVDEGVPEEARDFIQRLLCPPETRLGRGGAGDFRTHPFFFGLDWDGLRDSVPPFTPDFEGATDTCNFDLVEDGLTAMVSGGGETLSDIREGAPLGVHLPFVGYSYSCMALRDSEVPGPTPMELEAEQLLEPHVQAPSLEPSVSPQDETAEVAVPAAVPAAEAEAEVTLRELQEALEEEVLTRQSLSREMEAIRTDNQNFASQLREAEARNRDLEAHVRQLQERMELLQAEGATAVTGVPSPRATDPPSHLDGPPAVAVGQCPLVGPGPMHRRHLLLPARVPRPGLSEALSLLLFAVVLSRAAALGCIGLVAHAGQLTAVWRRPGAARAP

[9] = molecular target: Tyrosine-protein kinase Fer (Homo sapiens) (UniProt P16591); test: Selectivity interaction (ActivX KiNativ screen (ex vivo kinase selectivity in human PBMCs)) EUB0001619a FER; format: cell-based; details: PBMC, at 1 µM
[10] = molecular target: T2, Serine/threonine-protein kinase 36 (Homo sapiens) (UniProt Q9NRP7); test: Selectivity interaction (KinomeScan (DiscoverX)) EUB0000607a STK36; details: at 10 µM
T2 sequence (whole entry): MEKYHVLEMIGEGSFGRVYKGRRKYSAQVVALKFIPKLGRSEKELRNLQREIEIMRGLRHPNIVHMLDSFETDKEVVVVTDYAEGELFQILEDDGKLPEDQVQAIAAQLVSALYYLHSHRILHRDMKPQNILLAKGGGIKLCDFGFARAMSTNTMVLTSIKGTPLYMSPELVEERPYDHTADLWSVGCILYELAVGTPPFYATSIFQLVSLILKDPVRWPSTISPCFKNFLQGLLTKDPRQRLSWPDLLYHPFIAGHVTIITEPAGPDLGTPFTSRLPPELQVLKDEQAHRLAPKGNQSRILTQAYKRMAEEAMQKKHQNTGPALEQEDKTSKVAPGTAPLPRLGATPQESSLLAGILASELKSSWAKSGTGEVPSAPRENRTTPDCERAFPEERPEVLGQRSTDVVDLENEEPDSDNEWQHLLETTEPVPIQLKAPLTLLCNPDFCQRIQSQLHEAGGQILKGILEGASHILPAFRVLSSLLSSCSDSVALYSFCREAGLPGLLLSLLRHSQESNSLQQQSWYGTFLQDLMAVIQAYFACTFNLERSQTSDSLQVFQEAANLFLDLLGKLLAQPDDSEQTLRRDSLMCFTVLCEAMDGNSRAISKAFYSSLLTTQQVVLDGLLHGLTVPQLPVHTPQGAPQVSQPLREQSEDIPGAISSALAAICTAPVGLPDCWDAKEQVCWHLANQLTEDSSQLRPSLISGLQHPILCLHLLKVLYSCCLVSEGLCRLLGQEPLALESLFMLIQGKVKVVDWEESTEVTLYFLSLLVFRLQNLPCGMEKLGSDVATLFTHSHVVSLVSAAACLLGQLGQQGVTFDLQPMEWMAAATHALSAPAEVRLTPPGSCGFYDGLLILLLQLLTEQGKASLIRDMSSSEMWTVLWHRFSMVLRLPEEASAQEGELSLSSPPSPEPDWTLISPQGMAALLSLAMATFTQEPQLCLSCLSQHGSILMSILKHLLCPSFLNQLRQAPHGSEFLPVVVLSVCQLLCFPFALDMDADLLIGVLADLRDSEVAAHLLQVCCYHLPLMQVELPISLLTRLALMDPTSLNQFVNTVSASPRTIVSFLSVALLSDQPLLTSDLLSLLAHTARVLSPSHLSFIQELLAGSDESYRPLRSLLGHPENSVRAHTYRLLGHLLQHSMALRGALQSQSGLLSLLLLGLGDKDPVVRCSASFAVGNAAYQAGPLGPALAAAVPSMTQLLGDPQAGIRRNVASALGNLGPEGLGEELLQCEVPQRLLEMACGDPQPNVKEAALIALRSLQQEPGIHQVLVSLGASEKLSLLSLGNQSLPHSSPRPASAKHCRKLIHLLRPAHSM

[11] = molecular target: Histone-lysine N-methyltransferase SETD2 (Homo sapiens) (UniProt Q9BYW2); test: Selectivity interaction (Methyltransferase screen (radiometric assays, panel of 8 PRMTs, 21 protein lysine methyltransferases, 3 DNA methyltransferases, and one RNA methyltransferase)) EUB0000272b SETD2
Chain of Histone-lysine N-methyltransferase SETD2 (Homo sapiens) (Q9BYW2 whole entry): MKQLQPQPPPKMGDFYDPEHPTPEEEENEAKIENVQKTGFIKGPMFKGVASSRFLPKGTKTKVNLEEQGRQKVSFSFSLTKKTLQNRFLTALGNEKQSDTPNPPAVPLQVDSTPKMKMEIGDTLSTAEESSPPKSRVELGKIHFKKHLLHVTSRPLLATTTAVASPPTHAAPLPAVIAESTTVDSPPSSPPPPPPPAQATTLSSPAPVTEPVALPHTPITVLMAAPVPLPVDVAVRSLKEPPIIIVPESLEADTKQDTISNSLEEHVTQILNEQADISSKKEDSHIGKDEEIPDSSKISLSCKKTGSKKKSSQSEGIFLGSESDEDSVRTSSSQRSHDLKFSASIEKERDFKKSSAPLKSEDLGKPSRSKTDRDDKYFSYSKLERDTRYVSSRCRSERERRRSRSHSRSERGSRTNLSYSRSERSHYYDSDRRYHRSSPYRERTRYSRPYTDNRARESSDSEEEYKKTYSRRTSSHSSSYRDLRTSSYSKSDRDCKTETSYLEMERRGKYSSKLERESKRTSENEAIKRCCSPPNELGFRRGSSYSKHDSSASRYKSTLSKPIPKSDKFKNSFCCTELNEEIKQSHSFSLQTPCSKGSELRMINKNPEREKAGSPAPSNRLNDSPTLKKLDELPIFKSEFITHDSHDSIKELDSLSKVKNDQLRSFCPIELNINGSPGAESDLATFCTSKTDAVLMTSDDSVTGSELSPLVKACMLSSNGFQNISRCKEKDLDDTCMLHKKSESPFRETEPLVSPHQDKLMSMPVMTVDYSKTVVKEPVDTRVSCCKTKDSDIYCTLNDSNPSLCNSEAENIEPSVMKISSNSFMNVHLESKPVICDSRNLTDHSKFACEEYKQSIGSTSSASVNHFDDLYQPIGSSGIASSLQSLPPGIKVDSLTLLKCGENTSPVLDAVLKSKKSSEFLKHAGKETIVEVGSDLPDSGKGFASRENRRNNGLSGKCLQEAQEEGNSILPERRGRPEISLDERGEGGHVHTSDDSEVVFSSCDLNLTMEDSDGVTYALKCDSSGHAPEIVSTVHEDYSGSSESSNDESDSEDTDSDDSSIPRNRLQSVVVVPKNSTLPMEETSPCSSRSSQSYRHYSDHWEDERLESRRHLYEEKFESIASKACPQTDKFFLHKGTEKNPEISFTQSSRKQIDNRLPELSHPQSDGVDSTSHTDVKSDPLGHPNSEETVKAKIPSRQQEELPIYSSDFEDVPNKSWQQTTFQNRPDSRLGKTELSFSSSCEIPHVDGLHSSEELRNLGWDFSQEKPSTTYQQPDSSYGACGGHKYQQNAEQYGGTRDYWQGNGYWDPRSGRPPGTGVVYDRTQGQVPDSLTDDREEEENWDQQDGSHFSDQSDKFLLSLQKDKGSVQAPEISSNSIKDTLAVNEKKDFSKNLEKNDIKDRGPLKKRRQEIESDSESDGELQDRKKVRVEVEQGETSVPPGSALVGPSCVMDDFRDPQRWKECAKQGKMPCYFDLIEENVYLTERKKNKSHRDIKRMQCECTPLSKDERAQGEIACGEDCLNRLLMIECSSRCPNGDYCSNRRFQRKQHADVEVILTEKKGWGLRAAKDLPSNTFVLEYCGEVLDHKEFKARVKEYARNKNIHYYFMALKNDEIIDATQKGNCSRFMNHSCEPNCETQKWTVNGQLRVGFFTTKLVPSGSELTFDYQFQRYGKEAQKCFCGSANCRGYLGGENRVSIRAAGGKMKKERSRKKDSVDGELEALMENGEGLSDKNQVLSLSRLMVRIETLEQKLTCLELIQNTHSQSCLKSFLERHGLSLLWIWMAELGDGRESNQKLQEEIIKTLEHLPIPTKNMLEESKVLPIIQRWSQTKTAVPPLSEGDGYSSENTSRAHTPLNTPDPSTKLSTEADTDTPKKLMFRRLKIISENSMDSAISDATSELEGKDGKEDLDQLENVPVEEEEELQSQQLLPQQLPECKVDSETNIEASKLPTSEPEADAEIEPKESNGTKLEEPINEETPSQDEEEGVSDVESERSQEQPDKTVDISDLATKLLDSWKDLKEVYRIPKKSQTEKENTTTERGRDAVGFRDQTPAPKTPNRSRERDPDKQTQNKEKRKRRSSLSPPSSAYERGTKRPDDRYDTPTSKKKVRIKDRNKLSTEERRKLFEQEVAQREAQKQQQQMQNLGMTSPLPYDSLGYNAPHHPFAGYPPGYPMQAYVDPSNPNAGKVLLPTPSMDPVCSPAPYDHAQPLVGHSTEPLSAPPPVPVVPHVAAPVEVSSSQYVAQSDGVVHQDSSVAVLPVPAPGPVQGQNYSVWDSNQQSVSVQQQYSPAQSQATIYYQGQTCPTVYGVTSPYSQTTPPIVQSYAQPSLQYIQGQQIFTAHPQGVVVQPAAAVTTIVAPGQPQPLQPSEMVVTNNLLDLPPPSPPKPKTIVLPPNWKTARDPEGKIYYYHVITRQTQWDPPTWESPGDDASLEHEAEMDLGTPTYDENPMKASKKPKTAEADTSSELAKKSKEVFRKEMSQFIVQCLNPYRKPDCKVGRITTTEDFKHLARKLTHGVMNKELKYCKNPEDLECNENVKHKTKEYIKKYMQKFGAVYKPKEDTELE

Chain of Leucine-rich repeat serine/threonine-protein kinase 2 (Homo sapiens), Q5S007 [G2019S] (Q5S007 whole entry G2019S): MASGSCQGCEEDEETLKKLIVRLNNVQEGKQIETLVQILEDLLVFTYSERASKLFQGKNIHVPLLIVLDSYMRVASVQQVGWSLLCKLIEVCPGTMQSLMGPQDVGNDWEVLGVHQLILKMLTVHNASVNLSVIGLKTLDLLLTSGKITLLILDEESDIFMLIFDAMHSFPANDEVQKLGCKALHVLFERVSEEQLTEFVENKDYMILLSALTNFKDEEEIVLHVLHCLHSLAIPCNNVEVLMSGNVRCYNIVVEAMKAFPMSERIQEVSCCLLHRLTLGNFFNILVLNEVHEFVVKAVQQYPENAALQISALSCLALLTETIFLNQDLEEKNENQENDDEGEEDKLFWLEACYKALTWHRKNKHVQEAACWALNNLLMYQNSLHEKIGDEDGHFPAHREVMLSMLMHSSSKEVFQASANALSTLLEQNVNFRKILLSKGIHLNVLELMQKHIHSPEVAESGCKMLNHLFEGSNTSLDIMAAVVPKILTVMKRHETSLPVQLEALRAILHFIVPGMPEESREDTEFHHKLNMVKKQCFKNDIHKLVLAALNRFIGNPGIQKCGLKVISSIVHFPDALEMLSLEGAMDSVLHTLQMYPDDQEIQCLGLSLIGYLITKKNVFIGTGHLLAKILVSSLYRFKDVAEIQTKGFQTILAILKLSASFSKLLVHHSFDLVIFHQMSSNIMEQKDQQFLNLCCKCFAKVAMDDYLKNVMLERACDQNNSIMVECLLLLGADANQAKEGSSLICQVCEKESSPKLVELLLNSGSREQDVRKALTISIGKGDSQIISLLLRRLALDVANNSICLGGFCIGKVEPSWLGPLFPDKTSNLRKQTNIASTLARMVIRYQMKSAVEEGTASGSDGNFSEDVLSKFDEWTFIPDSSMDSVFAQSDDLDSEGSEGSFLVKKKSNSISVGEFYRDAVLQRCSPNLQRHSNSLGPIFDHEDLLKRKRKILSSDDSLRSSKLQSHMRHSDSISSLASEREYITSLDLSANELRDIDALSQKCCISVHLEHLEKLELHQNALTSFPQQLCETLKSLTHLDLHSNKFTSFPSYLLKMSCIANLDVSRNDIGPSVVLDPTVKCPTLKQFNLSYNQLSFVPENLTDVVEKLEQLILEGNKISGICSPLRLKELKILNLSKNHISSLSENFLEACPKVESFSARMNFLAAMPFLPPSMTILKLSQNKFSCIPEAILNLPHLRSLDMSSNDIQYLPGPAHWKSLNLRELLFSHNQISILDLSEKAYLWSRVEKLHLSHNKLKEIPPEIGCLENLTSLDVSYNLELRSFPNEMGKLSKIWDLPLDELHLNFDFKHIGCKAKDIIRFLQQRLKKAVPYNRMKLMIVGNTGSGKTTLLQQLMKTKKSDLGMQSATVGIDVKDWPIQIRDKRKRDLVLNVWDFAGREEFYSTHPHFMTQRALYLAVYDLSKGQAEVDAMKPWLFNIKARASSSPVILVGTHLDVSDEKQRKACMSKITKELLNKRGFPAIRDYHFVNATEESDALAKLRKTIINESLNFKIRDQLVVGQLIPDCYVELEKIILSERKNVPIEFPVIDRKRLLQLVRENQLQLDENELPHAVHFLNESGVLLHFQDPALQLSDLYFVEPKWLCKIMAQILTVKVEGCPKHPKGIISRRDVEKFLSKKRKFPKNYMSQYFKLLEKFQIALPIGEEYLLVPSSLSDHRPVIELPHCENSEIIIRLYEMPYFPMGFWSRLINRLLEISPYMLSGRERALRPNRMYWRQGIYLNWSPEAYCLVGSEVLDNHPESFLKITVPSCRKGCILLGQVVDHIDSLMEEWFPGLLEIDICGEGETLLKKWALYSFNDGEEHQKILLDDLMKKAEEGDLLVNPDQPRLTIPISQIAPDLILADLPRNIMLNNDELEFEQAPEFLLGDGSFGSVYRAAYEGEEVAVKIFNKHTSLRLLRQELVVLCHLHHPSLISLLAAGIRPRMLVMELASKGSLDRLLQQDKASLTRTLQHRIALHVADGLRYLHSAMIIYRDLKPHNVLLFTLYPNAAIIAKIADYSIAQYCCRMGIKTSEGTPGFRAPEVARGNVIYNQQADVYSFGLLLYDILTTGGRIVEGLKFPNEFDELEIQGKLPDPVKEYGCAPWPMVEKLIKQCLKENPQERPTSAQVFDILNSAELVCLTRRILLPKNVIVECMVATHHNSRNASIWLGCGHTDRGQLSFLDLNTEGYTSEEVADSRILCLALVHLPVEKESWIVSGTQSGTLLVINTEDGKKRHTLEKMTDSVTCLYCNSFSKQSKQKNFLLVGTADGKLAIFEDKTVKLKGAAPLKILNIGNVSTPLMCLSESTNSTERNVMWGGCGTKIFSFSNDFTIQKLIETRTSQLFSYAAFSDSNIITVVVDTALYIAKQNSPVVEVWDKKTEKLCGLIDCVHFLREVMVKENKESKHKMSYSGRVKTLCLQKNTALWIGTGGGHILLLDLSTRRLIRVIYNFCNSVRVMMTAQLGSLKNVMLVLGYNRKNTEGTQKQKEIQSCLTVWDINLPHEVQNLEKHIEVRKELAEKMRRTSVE
Chain of Leucine-rich repeat serine/threonine-protein kinase 2 (Q5S007 whole entry): as the sequence (Q5S007 whole entry G2019S) above, with S2019G counted along it

Compound `COc1cc(N(C)c2ccnc3ccc(C(F)(F)F)cc23)cc(OC)c1OC` has a % binding [1] of 72%.
Work on `Nc1cnc(N2CCc3cc(S(=O)(=O)Nc4c(F)cc(Cl)cc4F)cc(N4CCCC4=O)c32)nc1` [TP-020n] yielded a % of control [2] of 97% and a % of control [3] of 81%.
`C=CC(=O)Nc1ccc(C(=O)Nc2[nH]nc3c2CN(C(=O)N[C@H](CN(C)C)c2ccccc2)C3(C)C)cc1` was tested, and the % of engagement [4] was -26.3%.
`COCC(=O)NC/C=C/c1ccc2ncnc(Nc3ccc(Oc4ccc(C)nc4)c(C)c3)c2c1` [CP-724714] was tested, and the % of control [5] was 100%.
With `CCC(=O)N1CCN(c2ccc(-n3c(=O)ccc4cnc5ccc(-c6cnc7ccccc7c6)cc5c43)cc2C(F)(F)F)CC1` the % of control [6] was 91%.
For `O[C@H]1CC[C@H](Nc2ncc3nc(Nc4c(F)cc(F)cc4F)n([C@H]4CCOC4)c3n2)CC1`, the % of control [7] was 92%.
Work on `Cc1cc([C@@H](C)Nc2ccccc2C(=O)O)c2nc(N3CCOCC3)cc(=O)n2c1` [AZD-6482] yielded a % of control [8] of 100%.
`N#Cc1cccc(-c2c[nH]c3ncnc(N4CCOCC4)c23)c1` showed a % of inhibition [9] of 12%.
`CNC(=O)Nc1ccc(-c2nc(N3CC4CCC(C3)O4)c3cnn(C4CCC5(CC4)OCCO5)c3n2)cc1` was tested, and the % of control [10] was 96%.
Compound `Cc1cc(C)cc([C@H]2c3cc(C)ccc3NC(=O)CN2C(=O)c2ccc(Br)s2)c1` has a % of activity ([11]; at 1 µM) of 98% and a % of activity ([11]; at 10 µM) of 98.3%.
